Measurements as given in patent US20040219543A1, “Method for specifically detecting, isolating and characterizing cells from body samples by transfecting nucleic acid constructs” (priority 2001, published 2004).

Legend:
PPARδ = target: T1, PPARδ (Homo sapiens, UniProt Q03181); assay: PPARδ-responsive αGFPT204I reporter gene expression in transfected SW480 cells incubated with NSAIDs, flow cytometry; assay type: cell-based; settings: 300 μM, 10 hour incubation of transfected SW480 cells; expression returns virtually to background level
T1 construct: Because of Wnt signal activity, SW480 cells overexpress the transcription factor PPARδ; endogenous in cells; host or cells: SW480 colon carcinoma cells
T1 sequence (Q03181 1-441): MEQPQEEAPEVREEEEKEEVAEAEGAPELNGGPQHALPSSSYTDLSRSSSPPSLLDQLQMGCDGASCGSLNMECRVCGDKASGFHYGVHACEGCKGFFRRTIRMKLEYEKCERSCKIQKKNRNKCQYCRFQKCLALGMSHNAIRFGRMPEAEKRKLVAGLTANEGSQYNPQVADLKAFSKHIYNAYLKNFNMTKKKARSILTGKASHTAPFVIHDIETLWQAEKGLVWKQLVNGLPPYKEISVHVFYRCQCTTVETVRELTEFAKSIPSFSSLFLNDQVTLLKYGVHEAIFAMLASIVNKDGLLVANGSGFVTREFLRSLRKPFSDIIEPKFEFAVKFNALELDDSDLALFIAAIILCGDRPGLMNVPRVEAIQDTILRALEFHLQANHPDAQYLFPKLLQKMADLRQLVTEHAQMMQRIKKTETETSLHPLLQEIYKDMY

tumor cells = settings: by inhibiting the PPARδ transcription factor; cited from earlier work

Structure (SMILES)	inhibition of the observed activation of the FOP-αGFPT204I reporter gene in the presence of functional PPARδ-DNA binding sites (PPARδ)	growth of tumor cells (tumor cells)
CSc1ccc(/C=C2/C(C)=C(CC(=O)O)c3cc(F)ccc32)cc1 [Sulindac sulphide]	significantly inhibits	–
CC(=O)Oc1ccccc1C(=O)O [aspirin]	–	able to inhibit the growth of tumor cells
COc1ccc2c(c1)c(CC(=O)O)c(C)n2C(=O)c1ccc(Cl)cc1 [indomethacin]	significantly inhibits	–
CC1=C(CC(=O)O)c2cc(F)ccc2/C1=C\c1ccc([S+](C)[O-])cc1 (stereo not shown) [sulindac]	–	able to inhibit the growth of tumor cells
